Data from article PMC10648349, “Aromatic Diboronic Acids as Effective KPC/AmpC Inhibitors” (Molecules, 2023).
Converted amounts (≈) assume the structure as drawn. Where two headings read alike, the source gives them in different places.

Key:
[1] = tested on: K. pneumoniae ATCC BAA 1705 KPC-2-positive; assay: combination disc test CDT-KPC; type: cell-based; conditions: Klebsiella pneumoniae
[2] = tested on: P. aeruginosa MUW 700 cAmpC-positive; assay: combination disc test CDT-AmpC; type: cell-based; conditions: Pseudomonas aeruginosa, read-out: Diameter of inhibition zone, CAZ-30 disc with agent
[3] = tested on: E. coli 77 CMY-2-positive; assay: combination disc test CDT-AmpC; type: cell-based; conditions: Escherichia coli, read-out: Diameter of inhibition zone, CAZ-30 disc with agent
[4] = tested on: E. coli 77 CMY-2-positive; assay: checkerboard microdilution, antibiotic plus tested agent; type: cell-based, Escherichia coli
Outline: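 Read-out is the antibiotic MIC with agent present, plus FICI = combined/alone MIC ratios summed for both partners. Meropenem pairs served for carbapenemase strains and ceftazidime pairs for the AmpC strain. Agent or PBA was tested at 4–16 mg/L.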

[5] = MTT-based viability assay; type: cell-based; conditions: human, 72 h; for viability at 72 h, 12.5 mg/L / viability at 72 h, 25 mg/L / viability at 72 h, 50 mg/L: read-out: Viability of MRC-5 cells (% of viable cells ± SD)
Outline: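 Percent viable cells relative to control, measured in triplicate by MTT read-out at 570 nm. Cells: MRC-5 human fibroblasts cultured at 37 °C, 5% CO2 in MEME plus 10% FBS.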

E. faecalis ATCC 29212 = assay: direct antimicrobial activity (disc-diffusion, MIC, MBC); type: cell-based; conditions: Enterococcus faecalis, ATCC29212
Outline: (§1)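 EUCAST/CLSI methods: disc diffusion at 0.4 mg compound/disc, broth MIC, then MBC (bacteria) or MFC (yeast). DMSO vehicle.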

E. faecium ATCC 6057 = assay: as above; type: cell-based; conditions: Enterococcus faecium, ATCC6057
Outline: as §1

[6] = tested on: S. aureus ATCC 43300 MRSA; assay: as above; type: cell-based; conditions: Staphylococcus aureus
Outline: as §1

S. aureus ATCC 6538P = assay: as above; type: cell-based; conditions: Staphylococcus aureus, ATCC6538P
Outline: as §1

[7] = tested on: S. epidermidis ATCC 12228; assay: as above; type: cell-based; conditions: Staphylococcus epidermidis, ATCC12228; for zone of inhibition at 0.4 mg/disc: 0.4 mg per disc, 9 mm disc (linezolid 0.03 mg, 6 mm disc), - no zone, read-out: Diameter of inhibition zone
Outline: as §1

[8] = tested on: C. parapsilosis ATCC 22019; assay: antifungal activity (disc-diffusion, MIC, MFC); type: cell-based, Candida parapsilosis; conditions: Lodderomyces parapsilosis, ATCC22019; for MIC: fluconazole by Etest
Outline: as §1

[9] = tested on: C. guilliermondii IBA 155; assay: antifungal activity (disc-diffusion, MIC, MFC); type: cell-based, Candida guilliermondii; conditions: Meyerozyma guilliermondii, IBA155; for MIC: fluconazole by Etest
Outline: as §1

C. krusei ATCC 6258 = assay: antifungal activity (disc-diffusion, MIC, MFC); type: cell-based, Candida krusei; conditions: Pichia kudriavzevii, ATCC6258; for MIC: fluconazole by Etest
Outline: as §1

C. albicans ATCC 90028 = assay: antifungal activity (disc-diffusion, MIC, MFC); type: cell-based; conditions: Candida albicans, ATCC90028; for MIC: fluconazole by Etest
Outline: as §1

C. tropicalis ATCC 750 = assay: antifungal activity (disc-diffusion, MIC, MFC); type: cell-based; conditions: Candida tropicalis, ATCC750; for MIC: fluconazole by Etest
Outline: as §1

C. tropicalis IBA 171 = assay: antifungal activity (disc-diffusion, MIC, MFC); type: cell-based; conditions: Candida tropicalis, IBA171; for MIC: fluconazole by Etest
Outline: as §1

S. cerevisiae ATCC 9763 = assay: antifungal activity (disc-diffusion, MIC, MFC); type: cell-based; conditions: Saccharomyces cerevisiae, ATCC9763; for zone of inhibition at 0.4 mg/disc: 0.4 mg per disc, 9 mm disc (fluconazole 0.025 mg, 6 mm disc), - no zone, read-out: Diameter of inhibition zone; for MIC: fluconazole by Etest
Outline: as §1

B. subtilis ATCC 6633 = assay: direct antimicrobial activity (disc-diffusion); type: cell-based; conditions: Bacillus subtilis, ATCC6633; 0.4 mg per disc, 9 mm disc (linezolid 0.03 mg, 6 mm disc); - no zone; read-out: Diameter of inhibition zone
Method: Direct antimicrobial activity against Gram-negative and Gram-positive bacterial strains, as well as against yeast, was examined as previously described by the disc-diffusion test, the MIC determination assay, the MBC (for bacteria), and the MFC (for yeasts) determination tests. All the above-mentioned tests were performed according to EUCAST [71, 72] and CLSI [73, 74, 75, 76, 77] recommendations. The following reference agents were used: nitrofurantoin (for Gram-negative rods), linezolid (for Gram-positive bacteria), and fluconazole (in the case of fungi). The new aromatic diboronic acids were dissolved in DMSO (Sigma, St. Louis, MO, USA). In the disc-diffusion test, the concentration of new agents was 0.4 mg per disc.

[10] = 0.4 mg per disc, 9 mm disc (linezolid 0.03 mg, 6 mm disc), - no zone, read-out: Diameter of inhibition zone
[11] = 0.4 mg per disc, 9 mm disc (fluconazole 0.025 mg, 6 mm disc), - no zone, read-out: Diameter of inhibition zone

Structure (SMILES) | Average FICI with ceftazidime [4] | The lowest FICI with ceftazidime [4] | MIC (E. faecalis ATCC 29212) [µg/mL] | MIC (E. faecium ATCC 6057) [µg/mL] | MIC [6] [µg/mL] | MIC (S. aureus ATCC 6538P) [µg/mL] | MIC [7] [µg/mL] | zone of inhibition at 0.4 mg/disc [7] [mm] | MIC [8] [µg/mL] | MIC [9] [µg/mL] | MIC (C. krusei ATCC 6258) [µg/mL] | MIC (C. albicans ATCC 90028) [µg/mL] | MIC (C. tropicalis ATCC 750) [µg/mL] | MIC (C. tropicalis IBA 171) [µg/mL] | zone of inhibition at 0.4 mg/disc (S. cerevisiae ATCC 9763) [mm] | MIC (S. cerevisiae ATCC 9763) [µg/mL] | viability at 72 h, 12.5 mg/L ([5]; MRC-5 human fibroblasts) [%] | viability at 72 h, 25 mg/L ([5]; MRC-5 human fibroblasts) [%] | viability at 72 h, 50 mg/L ([5]; MRC-5 human fibroblasts) [%] | further results
OB(O)c1ccccc1 [PBA, phenylboronic acid, reference compound] | 0.30 | 0.15 |  |  |  |  |  |  |  |  |  |  |  |  |  |  |  |  |  | zone of inhibition at 300 µg/disc ([1]; BAA1705, read-out: Diameter of inhibition zone, MEM-10 disc with agent): 21 mm; zone of inhibition at 300 µg/disc [2]: 24 mm; zone of inhibition at 300 µg/disc [3]: 24 mm; viability at 72 h, 12.5 mg/L [5]: 81.5 ± 3.7%; viability at 72 h, 25 mg/L [5]: 79.1 ± 4.4%; viability at 72 h, 50 mg/L [5]: 58.7 ± 4.3%
OB(O)c1cccc(F)c1B(O)O [3b] | 0.43 | 0.27 | > 400 | > 400 | > 400 | > 400 | 400 (≈ 2180 µM) | 21 | 200 (≈ 1090 µM) | 400 (≈ 2180 µM) | 100 (≈ 544 µM) | 400 (≈ 2180 µM) | 200 (≈ 1090 µM) | 200 (≈ 1090 µM) | 13 | 100 (≈ 544 µM) | 98.1 ± 6.1 | 91.2 ± 13.5 | 87.1 ± 8 | zone of inhibition at 300 µg/disc ([1]; BAA1705, agent 0.3 mg per disc, read-out: Diameter of inhibition zone, MEM-10 disc with agent): 14 mm; zone of inhibition at 300 µg/disc ([2]; agent 0.3 mg per disc): 22 mm; zone of inhibition at 300 µg/disc ([3]; agent 0.3 mg per disc): 25 mm
O=Cc1cc(F)ccc1B(O)O [7b] |  |  | 200 (≈ 1190 µM) | 200 (≈ 1190 µM) | 50 (≈ 298 µM) | 50 (≈ 298 µM) | 50 (≈ 298 µM) | 30 | 12.5 (≈ 74.4 µM) | 25 (≈ 149 µM) | 25 (≈ 149 µM) | 6.25 (≈ 37.2 µM) | 50 (≈ 298 µM) | 50 (≈ 298 µM) | 35 | 6.25 (≈ 37.2 µM) | 48.9 ± 3.8 | 6.4 ± 1.4 | 0.9 ± 0.7 | zone of inhibition at 0.4 mg/disc (E. faecalis ATCC 29212; [10]): 14 mm; zone of inhibition at 0.4 mg/disc (E. faecium ATCC 6057; [10]): 14 mm; zone of inhibition at 0.4 mg/disc [6, 10]: 20 mm; MBC (S. aureus ATCC 6538P): 100 µg/mL (≈ 595 µM); zone of inhibition at 0.4 mg/disc (S. aureus ATCC 6538P; [10]): 19 mm; MBC [7]: 100 µg/mL (≈ 595 µM); zone of inhibition at 0.4 mg/disc (B. subtilis ATCC 6633): 22 mm; zone of inhibition at 0.4 mg/disc [8, 11]: 17 mm; zone of inhibition at 0.4 mg/disc [9, 11]: 27 mm; zone of inhibition at 0.4 mg/disc (C. krusei ATCC 6258; [11]): 28 mm; zone of inhibition at 0.4 mg/disc (C. albicans ATCC 90028; [11]): 31 mm; zone of inhibition at 0.4 mg/disc (C. tropicalis ATCC 750; [11]): 21 mm; zone of inhibition at 0.4 mg/disc (C. tropicalis IBA 171; [11]): 22 mm; viability at 72 h ([5]; MRC-5 human fibroblasts, 12.5, 25 and 50 mg/L): 0 to 56.4%
